Measurements reported in US7482379B2, “Propenoyl hydrazides” (priority 2004, dated 2009).

Each molecule was assayed against S. mansoni legumain (Schistosoma mansoni, UniProt P09841, N192C) (assay: S. mansoni legumain (SmAE) inhibition assay). Conditions: not given.
Type: biochemical
Protocol: Studies with the propenoyl hydrazides using the schistosome legumain […], (Schistosoma mansoni asparaginyl endopeptidase) were also performed. […] The actual active site enzyme concentration is unknown. The lyophilized enzyme ([…]) was reconstituted in 1.5 mL 0.5 M sodium acetate, pH 4.5 containing 4 mM DTT, and left to stand at 37° C. for 3-4 hours to allow for auto-activation of the zymogen. In a black 96-well microtiter plate, 50 μL of activated enzyme was added to an equal volume of 0.1 M citrate-phosphate buffer pH 6.8 containing 4 mM DTT. Inhibitor stock solutions (20 mM) were prepared in DMSO. Serial dilutions (using water) of inhibitor were added (as 1 μL aliquots) to yield concentrations of between 2 and 0.00002 μM inhibitor. […] After incubating various inhibitor concentrations with enzyme, 100 μL of the same buffer containing 20 μM substrate (Cbz-Ala-Ala-Asn-AMC) was added to the wells and the reaction monitored at room temperature with linear kinetics up to 20 minutes. Inhibitors are tested in duplicate. A plot of the RFU/min versus the inhibitor concentration [μM] permitted calculation of an IC50 value and estimation of the kobs/[I].

Chain of S. mansoni legumain (P09841 32-291 N192C): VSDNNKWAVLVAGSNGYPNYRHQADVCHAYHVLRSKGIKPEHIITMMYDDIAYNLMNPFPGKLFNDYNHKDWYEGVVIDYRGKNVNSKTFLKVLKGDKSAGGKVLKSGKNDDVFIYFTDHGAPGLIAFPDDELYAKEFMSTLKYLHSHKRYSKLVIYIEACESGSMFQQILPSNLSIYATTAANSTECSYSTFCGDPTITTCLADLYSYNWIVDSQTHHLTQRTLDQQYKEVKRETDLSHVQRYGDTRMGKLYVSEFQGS

Row | Compound | IC50
1 | C[C@H](NC(=O)OCc1ccccc1)C(=O)N[C@@H](C)C(=O)NN(CC(N)=O)C(=O)/C=C/C(=O)NCc1ccc(F)cc1 [Cbz-Ala-Ala-AAsn-CH═CH—CONH-Bzl-4-F, N^2—(N-Benzyloxycarbonylalanylalanyl)-N^1-carbamoylmethyl-N^1-trans-(3-(4-fluorobenzyl)carbamoylpropenoyl)hydrazine] | 800 nM
2 | C[C@H](NC(=O)OCc1ccccc1)C(=O)N[C@@H](C)C(=O)NN(CC(N)=O)C(=O)/C=C/C(=O)Nc1ccccc1 [Cbz-Ala-Ala-AAsn-CH═CH—CONHPh, N^2—(N-Benzyloxycarbonylalanylalanyl)-N^1-carbamoylmethyl-N^1-trans-(3-phenylcarbamoylpropenoyl)hydrazine] | 700 nM
3 | CCOC(=O)C=CC(=O)N(CC(N)=O)NC(=O)C(C)NC(=O)C(C)NC(=O)CCCCC1SCC2NC(=O)NC21 (stereo not drawn) [Biotinyl-Ala-Ala-AAsn-CH═CH—COOEt] | 10 nM
4 | C[C@H](NC(=O)OCc1ccccc1)C(=O)N[C@@H](C)C(=O)NN(CC(N)=O)C(=O)/C=C/C(=O)N1CC=C(c2ccccc2)CC1 [Cbz-Ala-Ala-AAsn-CH═CH—CO-(4-Ph-Py), N^2—(N-Benzyloxycarbonylalanylalanyl)-N^1-carbamoylmethyl-N^1-trans-(3-(4-phenyl-5,6-dihydro-2H-pyridin-1-yloxo)propenoyl)hydrazine] | 750 nM
5 | C[C@H](NC(=O)OCc1ccccc1)C(=O)N[C@@H](C)C(=O)NN(CC(N)=O)C(=O)/C=C/C(=O)N1CCCCC1 [Cbz-Ala-Ala-AAsn-CH═CH—CO-Pip, N^2—(N-Benzyloxycarbonylalanylalanyl)-N^1-carbamoylmethyl-N^1-trans-(3-(1-piperidyloxo)propenoyl)hydrazine] | 1000 nM
6 | C[C@H](NC(=O)OCc1ccccc1)C(=O)N[C@@H](C)C(=O)NN(CC(N)=O)C(=O)/C=C/c1ccco1 [Cbz-Ala-Ala-AAsn-CH═CH-2-furyl, N^2—(N-Benzyloxycarbonylalanylalanyl)-N^1-carbamoylmethyl-N^1-trans-(3-(2-furyl)propenoyl)hydrazine] | > 2000 nM
7 | CCCCN(CCCC)C(=O)/C=C/C(=O)N(CC(N)=O)NC(=O)[C@H](C)NC(=O)[C@H](C)NC(=O)OCc1ccccc1 [Cbz-Ala-Ala-AAsn-CH═CH—CON(nBu)2, N^2—(N-Benzyloxycarbonylalanylalanyl)-N^1-carbamoylmethyl-N^1-trans-(3-dibutylcarbamoylpropenoyl)hydrazine] | 550 nM
8 | C[C@H](NC(=O)OCc1ccccc1)C(=O)N[C@@H](C)C(=O)NN(CC(N)=O)C(=O)/C=C/C(=O)N(Cc1ccccc1)c1ccccc1 [Cbz-Ala-Ala-AAsn-CH═CH—CON(Bzl)Ph, N^2—(N-Benzyloxycarbonylalanylalanyl)-N^1-carbamoylmethyl-N^1-trans-(3-phenylbenzylcarbamoylpropenoyl)hydrazine] | 70 nM
9 | C[C@H](NC(=O)OCc1ccccc1)C(=O)N[C@@H](C)C(=O)NN(CC(N)=O)C(=O)/C=C/C(=O)N(Cc1ccco1)Cc1ccco1 [Cbz-Ala-Ala-AAsn-CH═CH—CON(CH2-2-furyl)2, N^2—(N-Benzyloxycarbonylalanylalanyl)-N^1-carbamoylmethyl-N^1-trans-(3-bis-(2-furylmethyl)carbamoylpropenoyl)hydrazine] | 900 nM
10 | C[C@H](NC(=O)OCc1ccccc1)C(=O)N[C@@H](C)C(=O)NN(CC(N)=O)C(=O)/C=C/c1cccnc1 [Cbz-Ala-Ala-AAsn-CH═CH-3-Py, N^2—(N-Benzyloxycarbonylalanylalanyl)-N^1-carbamoylmethyl-N^1-trans-(3-(3-pyridyl)propenoyl)hydrazine] | > 2000 nM
11 | C[C@H](NC(=O)OCc1ccccc1)C(=O)N[C@@H](C)C(=O)NN(CC(N)=O)C(=O)/C=C/C(=O)N1CCCc2ccccc21 [N^2—(N-Benzyloxycarbonylalanylalanyl)-N^1-carbamoylmethyl-N^1-trans-(3-(3,4-dihydro-2H-quinolin-1-yloxo)propenoyl)hydrazine] | 70 nM
12 | CC(NC(=O)OCc1ccccc1)C(=O)NC(C)C(=O)NN(CC(N)=O)C(=O)C=CC(=O)N(C)C(Cc1ccccc1)C(=O)N(C)CCc1ccccc1 (stereo not drawn) [N^2—(N-Benzyloxycarbonylalanylalanyl)-N^1-carbamoylmethyl-N^1-trans-(3-methyl-(1-methylphenethylcarbamoyl)phenylethylcarbamoylpropenoyl)hydrazine] | 750 nM
13 | C[C@H](NC(=O)OCc1ccccc1)C(=O)N[C@@H](C)C(=O)NN(CC(N)=O)C(=O)/C=C/C(=O)N1Cc2ccccc2C1 [Cbz-Ala-Ala-AAsn-CH═CH—CO-isoindoline, N^2—(N-Benzyloxycarbonylalanylalanyl)-N^1-carbamoylmethyl-N^1-trans-(3-(1,3-dihydroisoindol-2-yloxo)propenoyl)hydrazine] | 300 nM
14 | C[C@H](NC(=O)OCc1ccccc1)C(=O)N[C@@H](C)C(=O)NN(CC(N)=O)C(=O)/C=C/C(=O)N(C)Cc1cccc2ccccc12 [N^2—(N-Benzyloxycarbonylalanylalanyl)-N^1-carbamoylmethyl-N^1-trans-(3-(methyl-1-naphthylmethylcarbamoyl)propenoyl)hydrazine] | 35 nM
15 | C[C@H](NC(=O)OCc1ccccc1)C(=O)N[C@@H](C)C(=O)NN(CC(N)=O)C(=O)/C=C/C(=O)N(C)c1ccccc1 [Cbz-Ala-Ala-AAsn-CH═CH—CON(CH3)Ph, N^2—(N-Benzyloxycarbonylalanylalanyl)-N^1-carbamoylmethyl-N^1-trans-(3-(methylphenylcarbamoyl)propenoyl)hydrazine] | 60 nM
16 | COc1ccc(CN(Cc2ccccc2)C(=O)/C=C/C(=O)N(CC(N)=O)NC(=O)[C@H](C)NC(=O)[C@H](C)NC(=O)OCc2ccccc2)cc1 [Cbz-Ala-Ala-AAsn-CH═CH—CON(Bzl-4-OMe)Bzl, N^2—(N-Benzyloxycarbonylalanylalanyl)-N^1-trans-(3-benzyl-(4-methoxybenzyl)carbamoyl)propenoyl-N^1-carbamoylmethylhydrazine] | 90 nM
17 | C[C@H](NC(=O)OCc1ccccc1)C(=O)N[C@@H](C)C(=O)NN(CC(N)=O)C(=O)/C=C/C(=O)N(Cc1ccccc1)Cc1ccc(F)cc1 [Cbz-Ala-Ala-AAsn-CH═CH—CON(Bzl-4-F)Bzl, N^2—(N-Benzyloxycarbonylalanylalanyl)-N^1-trans-(3-benzyl(4-fluorobenzyl)carbamoylpropenoyl)-N^1-carbamoylmethylhydrazine] | 60 nM
18 | C[C@H](NC(=O)OCc1ccccc1)C(=O)N[C@@H](C)C(=O)NN(CC(N)=O)C(=O)/C=C/C(=O)N(C)CCc1ccccc1 [Cbz-Ala-Ala-AAsn-CH═CH—CON(CH3)CH2CH2Ph, N^2—(N-Benzyloxycarbonylalanylalanyl)-N^1-carbamoylmethyl-N^1-trans-(3-(Methylphenethylcarbamoyl)propenoyl)hydrazine] | 600 nM
19 | C[C@H](NC(=O)OCc1ccccc1)C(=O)N[C@@H](C)C(=O)NN(CC(N)=O)C(=O)/C=C/C(=O)N(Cc1ccccc1)Cc1cccc2ccccc12 [N^2—(N-Benzyloxycarbonylalanylalanyl)-N^1-trans-(3-benzyl-1-naphthylmethylcarbamoylpropenoyl)-N^1-carbamoylmethylhydrazine] | 62 nM
20 | C[C@H](NC(=O)OCc1ccccc1)C(=O)N[C@@H](C)C(=O)NN(CC(N)=O)C(=O)/C=C/C(=O)NCc1ccccc1 [Cbz-Ala-Ala-AAsn-CH═CH—CONHBzl, N^2—(N-Benzyloxycarbonylalanylalanyl)-N^1-carbamoylmethyl-N^1-trans-(3-benzylcarbamoylpropenoyl)hydrazine] | 1000 nM

Same assay, conditions: S. mansoni legumain; 20 min preincubation; Cbz-Ala-Ala-Asn-AMC substrate

Row | Compound | IC50
21 | CC=CC=CC(=O)N(CC(N)=O)NC(=O)C(C)NC(=O)C(C)NC(=O)OCc1ccccc1 (stereo not drawn) [Cbz-Ala-Ala-AAsn-CH═CHCH═CHCH3, N^2—(N-Benzyloxycarbonylalanylalanyl)-N^1-carbamoylmethyl-N^1-trans-trans-hexa-2,4-dienoylhydrazine] | > 2000 nM
22 | CCN(CC)C(=O)/C=C/C(=O)N(CC(N)=O)NC(=O)[C@H](C)NC(=O)[C@H](C)NC(=O)OCc1ccccc1 [Cbz-Ala-Ala-AAsn-CH═CH—CONEt2, N^2—(N-Benzyloxycarbonylalanylalanyl)-N^1-carbamoylmethyl-N^1-trans-(3-diethylcarbamoylpropenoyl)hydrazine] | > 2000 nM

Same assay, conditions: S. mansoni legumain; 20 min preincubation; Cbz-Ala-Ala-Asn-AMC substrate; read-out: IC50

Row | Compound | IC50
23 | C[C@H](NC(=O)OCc1ccccc1)C(=O)N[C@@H](C)C(=O)NN(CC(N)=O)C(=O)/C=C/C(=O)N1CCCc2ccccc21 (relative stereo) [N^2—(N-Benzyloxycarbonylalanylalanyl)-N^1-carbamoylmethyl-N^1-trans-(3-(3,4-dihydro-2H-quinolin-1-yloxo)propenoyl)hydrazine] | 200 nM

Same assay, conditions: read-out: kobs/[I]

Row | Compound | kinact/KI
24 | C[C@H](NC(=O)OCc1ccccc1)C(=O)N[C@@H](C)C(=O)NN(CC(N)=O)C(=O)/C=C/C(=O)N(C)Cc1cccc2ccccc12 [N^2—(N-Benzyloxycarbonylalanylalanyl)-N^1-carbamoylmethyl-N^1-trans-(3-(methyl-1-naphthylmethylcarbamoyl)propenoyl)hydrazine] | 16900 M⁻¹ s⁻¹
25 | C[C@H](NC(=O)OCc1ccccc1)C(=O)N[C@@H](C)C(=O)NN(CC(N)=O)C(=O)/C=C/C(=O)N(Cc1ccccc1)Cc1cccc2ccccc12 [N^2—(N-Benzyloxycarbonylalanylalanyl)-N^1-trans-(3-benzyl-1-naphthylmethylcarbamoylpropenoyl)-N^1-carbamoylmethylhydrazine] | 6180 M⁻¹ s⁻¹

The molecules below were run against T1, Caspase-7 (Homo sapiens, UniProt P55210) (assay: Caspase-7 progress curve inhibition assay). Conditions: second-order rate constant; Ac-DEVD-AMC substrate; Pipes buffer pH 7.2.
T1 sequence (P55210 24-198 limits assumed): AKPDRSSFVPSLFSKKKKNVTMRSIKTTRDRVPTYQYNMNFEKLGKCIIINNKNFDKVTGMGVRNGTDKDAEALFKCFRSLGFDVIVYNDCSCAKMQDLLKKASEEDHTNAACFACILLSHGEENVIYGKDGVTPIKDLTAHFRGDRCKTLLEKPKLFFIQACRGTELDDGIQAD
T1 sequence (P55210 207-303 limits assumed): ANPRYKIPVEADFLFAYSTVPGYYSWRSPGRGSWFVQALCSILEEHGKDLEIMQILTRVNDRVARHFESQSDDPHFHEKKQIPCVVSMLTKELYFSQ

Row | Compound | k2 Caspase-7
26 | C/C=C/C=C/C(=O)N(CC(=O)O)NC(=O)[C@@H](NC(=O)OCc1ccccc1)C(C)C (stereo in doubt) [Cbz-Val-AAsp-CH═CH—CH═CH—CH3, N^2—(N-Benzyloxyearbonylvalyl)-N^1-carboxymethyl-N^1-trans-(hexa-2,4-dienoyl)hydrazine] | 56 M⁻¹ s⁻¹
